Assay results from ChEMBL document CHEMBL5674873, “Expression and inhibition of BRD4, EZH2 and TOP2A in neurofibromas and malignant peripheral nerve sheath tumors” (PLoS One, 2017).

How the values were obtained:
Format in all cases: cell-based
[1] = biological target: T1, Bromodomain-containing protein 4 (Homo sapiens, UniProt O60885); test: Inhibition of BRD4 in human ST88-14 cells assessed as reduction in cell viability at 4.9 to 2500 nM incubated for 72 hrs by SRB assay
[2] = biological target: T1, Bromodomain-containing protein 4; conditions: sts-26t
Description: Inhibition of BRD4 in human STS-26T cells assessed as reduction in cell viability at 4.9 to 2500 nM incubated for 72 hrs by SRB assay

[3] = biological target: T1, Bromodomain-containing protein 4; test: Inhibition of BRD4 in human HS53T cells assessed as reduction in cell viability at 4.9 to 2500 nM incubated for 72 hrs by SRB assay
[4] = biological target: DNA topoisomerase 2-alpha (Homo sapiens, UniProt P11388); test: Inhibition of TOP2A in human HS53T cells assessed as reduction in cell viability at 1 to 500 ng/ml incubated for 72 hrs by SRB assay
DNA topoisomerase 2-alpha, sequence (P11388 whole entry): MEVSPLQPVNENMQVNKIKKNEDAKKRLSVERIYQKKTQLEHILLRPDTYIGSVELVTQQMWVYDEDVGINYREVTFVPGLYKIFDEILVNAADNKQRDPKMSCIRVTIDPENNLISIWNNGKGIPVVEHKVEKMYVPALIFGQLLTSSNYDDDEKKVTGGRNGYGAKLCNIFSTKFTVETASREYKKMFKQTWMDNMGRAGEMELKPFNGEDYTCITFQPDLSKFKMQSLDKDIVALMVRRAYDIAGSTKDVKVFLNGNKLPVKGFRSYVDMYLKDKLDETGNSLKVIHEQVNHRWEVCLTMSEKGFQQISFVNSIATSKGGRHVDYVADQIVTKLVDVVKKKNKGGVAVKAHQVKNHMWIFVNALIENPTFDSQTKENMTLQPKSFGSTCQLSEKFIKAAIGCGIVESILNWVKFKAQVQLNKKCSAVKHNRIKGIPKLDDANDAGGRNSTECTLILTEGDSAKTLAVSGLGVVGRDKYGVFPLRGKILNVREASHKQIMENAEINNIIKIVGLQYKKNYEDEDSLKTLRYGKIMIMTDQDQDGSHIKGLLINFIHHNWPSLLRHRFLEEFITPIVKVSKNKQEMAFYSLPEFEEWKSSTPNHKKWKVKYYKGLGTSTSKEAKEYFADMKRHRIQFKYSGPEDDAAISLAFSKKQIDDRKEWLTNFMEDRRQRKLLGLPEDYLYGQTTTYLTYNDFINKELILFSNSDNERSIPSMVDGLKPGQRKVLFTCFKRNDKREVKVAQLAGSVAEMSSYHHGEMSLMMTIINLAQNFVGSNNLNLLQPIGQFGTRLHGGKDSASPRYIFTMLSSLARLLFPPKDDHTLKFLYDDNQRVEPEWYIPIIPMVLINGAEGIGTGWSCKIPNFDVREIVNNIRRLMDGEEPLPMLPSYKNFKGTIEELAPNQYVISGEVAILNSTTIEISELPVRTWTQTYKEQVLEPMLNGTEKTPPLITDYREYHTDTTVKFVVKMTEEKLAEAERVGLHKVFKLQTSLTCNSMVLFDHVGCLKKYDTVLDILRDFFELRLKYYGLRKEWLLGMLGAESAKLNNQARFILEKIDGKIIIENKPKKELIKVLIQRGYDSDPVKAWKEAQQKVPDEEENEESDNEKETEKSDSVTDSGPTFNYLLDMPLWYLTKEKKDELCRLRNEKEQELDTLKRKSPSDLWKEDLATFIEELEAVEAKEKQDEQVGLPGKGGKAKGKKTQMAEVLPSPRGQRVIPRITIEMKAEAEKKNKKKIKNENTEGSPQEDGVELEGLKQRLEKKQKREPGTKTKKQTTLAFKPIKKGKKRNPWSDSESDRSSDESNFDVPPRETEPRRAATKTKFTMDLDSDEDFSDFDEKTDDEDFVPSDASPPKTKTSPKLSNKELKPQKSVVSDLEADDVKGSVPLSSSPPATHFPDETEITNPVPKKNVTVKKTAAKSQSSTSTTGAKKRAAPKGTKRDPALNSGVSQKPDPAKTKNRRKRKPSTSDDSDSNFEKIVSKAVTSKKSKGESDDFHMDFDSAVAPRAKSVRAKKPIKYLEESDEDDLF

SMILES | IC50 [1] | IC50 [2] | IC50 [3] | IC50 [4]
Cc1sc2c(c1C)C(c1ccc(Cl)cc1)=N[C@@H](CC(=O)OC(C)(C)C)c1nnc(C)n1-2 | Not Active | Not Active | Not Active | 
COc1cccc2c1C(=O)c1c(O)c3c(c(O)c1C2=O)C[C@@](O)(C(=O)CO)C[C@@H]3O[C@H]1C[C@H](N)[C@H](O)[C@H](C)O1 [DOXORUBICIN] |  |  |  | Not Active
